Calls of active or inactive are those of the source.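 The calls were made as follows: active = compounds giving half or more protection of infected cells from virus-caused growth loss, again on retest; inactive = the rest.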 Where a SMILES comes first, the peptide text is derived from it. [ ]: non-standard residue; d: D form. The star is where a group is joined. Cbz = O=C(OCc1ccccc1)*; Aib = CC(C)(N)C(=O)O; OBn = c1ccc(CO*)cc1
Tested on: CEM cells HIV-1 protection, formazan growth assay
Test: NCI AIDS Antiviral Assay
Conditions: for IC50: measured here: growth of uninfected CEM cells
Procedure, shortened: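 Human CEM cells, uninfected and HIV-1-infected, exposed to five drug concentrations; growth measured by soluble formazan assay and scored as percent protection from infection, with protecting compounds retested.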

SMILES | EC50 | IC50 | outcome
CCOP(=O)(OCC)/C(C#N)=C\c1cccc2ccccc12 | > 83.2 µM | > 83.2 µM | –
CC(=O)c1ccc(C(=O)c2ccccc2C(=O)O)cc1 | > 200 µM | > 200 µM | –
Cn1c(=O)c2c(ncn2Cc2ccc(O)c([N+](=O)[O-])c2)n(C)c1=O | > 200 µM | > 100 µM | –
O=C1C2=C(C(c3ccccc3)=C1c1ccccc1)c1ccccc1C1(c3ccccc3)C2=C(O)C(c2ccccc2)=C1c1ccccc1 (stereo not given) | – | – | inactive
CO/N=C/c1cc(OC)c(OC)c(OC)c1 | > 813 µM | > 813 µM | –
CCCCCC(/C=N/N)C(O)(C(F)(F)F)C(F)(F)F (stereo not given) | > 200 µM | 1.48 µM | –
O=[N+]([O-])/C(C(Cl)=C(Cl)Cl)=C1\NCCS1 | > 200 µM | > 100 µM | –
O=[N+]([O-])c1cccc(C2=NOC3CCCC23)c1 (stereo not given) | – | – | inactive
O=[N+]([O-])c1ccc(-n2nnc3ccccc32)nc1 | > 200 µM | > 200 µM | –
O=c1c(Cl)c2cc3c(cc2c2ccccc12)nc1cccnc1n3C1CCCCC1 | > 39.8 µM | > 39.8 µM | –
Cc1cccc(NC(=O)c2cc3cc(N=Nc4ccccc4Cl)ccc3oc2=O)c1 | > 24 µM | > 24 µM | –
C(=C/P(c1ccccc1)c1ccccc1)/P(c1ccccc1)c1ccccc1.C(=CP(c1ccccc1)c1ccccc1)P(c1ccccc1)c1ccccc1.[Pt] | > 3.63 µM | 2.63 µM | –
CC(=O)C(CN(C)C)C(c1ccccc1)c1c(O)c2ccccc2oc1=O (stereo not given) | > 64.6 µM | 11 µM | –
CCCCCCCCCCCC1=C(O)C(N[C@@H]2CCCCC2N)=CC(=O)C1=O (stereo not given in full) | > 3.72 µM | > 3.72 µM | –
CNC1C(OC2C(OC3C(O)C(O)C(N=C(N)N)C(O)C3N=C(N)N)OC(C)C2(O)/C=N/NC(N)=S)OC(CO)C(O)C1O (stereo not given) | – | – | inactive
CNC(=O)OCc1c(COC(=O)NC)c2n(c1C)CSC2 | > 200 µM | 8.13 µM | –
CCN(CC)CCN1C(=O)c2cccc3c(N)c(OC)cc(c23)C1=O | > 200 µM | 3.39 µM | –
Cc1ccc2c(c1)C(=O)C1(C2)Cc2ccc(C)cc2C1=O | 191 µM | > 200 µM | –
CC1CCc2c(sc3ncnc(N/N=C/c4ccc(Cl)cc4)c23)C1 (stereo not given) | > 14.5 µM | > 14.5 µM | –
CC1(C)CCC(=O)c2c(O)ccc(O)c21 | – | – | inactive
COc1ccc(/C=C(\C(=C/c2ccc(OC)cc2)[N+](=O)[O-])[N+](=O)[O-])cc1 | > 200 µM | 4.57 µM | –
CC(=O)Nc1ccc(S(=O)(=O)NNC(=O)NNS(=O)(=O)c2ccc(NC(C)=O)cc2)cc1 | > 7.41 µM | > 7.41 µM | –
CCSSC12CCCN1C(=O)C(C)N(C)C2=O (stereo not given) | > 200 µM | 20.4 µM | –

SMILES | EC50 | IC50 | outcome
O=C1NC(=O)C(=Cc2ccc([N+](=O)[O-])cc2)C(=O)N1 | > 138 µM | > 138 µM | –
COc1cc2c(cc1OC)CN1CCCc3cc(OC)c(OC)cc3C1C2 (stereo not given) | > 200 µM | 32.4 µM | –
O=C1CCCCC1CN1CCCC1 (stereo not given) | – | – | inactive
O=C(N/C(=C\c1ccc(Br)cc1)c1nc2ccccc2s1)c1ccccc1 | > 22.9 µM | > 22.9 µM | –
CCC12CCCN(C1)C(=O)Cc1c([nH]c3ccccc13)C(=O)C2 (stereo not given) | > 8.13 µM | > 8.13 µM | –
O=C(CN1CCCCC1)c1ccc2[nH]c(=O)oc2c1 | > 200 µM | 129 µM | –
CC(=O)NNc1ncc(C(=O)/C=C/c2ccccc2C)s1 | > 22.4 µM | > 22.4 µM | –
Nc1c(Cl)cccc1-c1c[nH]c(Cl)c1Cl | > 138 µM | 72.4 µM | –
CC1(C)Oc2ccc3c(=O)cc(-c4ccc(F)cc4)oc3c2C1C(=O)O (stereo not given) | > 200 µM | > 200 µM | –
CC1(C)CC(=O)C2=C(C1)OC(N)=C(c1nc(-c3ccccc3)cs1)C2c1ccc(Br)cc1 (stereo not given) | > 200 µM | 22.9 µM | –
CN(/N=C\c1ccc2ccccc2c1)C1=NCCCCN1 | > 200 µM | 28.8 µM | –
O=C1NC(N/N=C\C(O)C(O)C(O)C(O)CO)=N/C1=C\c1ccc(Cl)cc1 (stereo not given) | > 200 µM | 33.9 µM | –
CCOC(=O)C(NC(=O)CC)(Nc1ccc(F)c(Cl)c1)C(F)(F)F (stereo not given) | > 200 µM | > 200 µM | –
C/C(=C\c1ccccn1)c1ccccn1 | > 200 µM | > 200 µM | –
CC(NC(=O)C(C)(C)NC(=O)C(CC(=O)OCc1ccccc1)NC(=O)OCc1ccccc1)C(N)=O (stereo not given) (Cbz-Asp(OBn)-[Aib]-Ala-NH2; configuration not given here) | > 200 µM | > 200 µM | –
Nc1ccc(C(=O)NN2C(=O)C(Cl)C2c2cccc(O)c2)cc1 (stereo not given) | > 200 µM | 9.55 µM | –
O=C1CSC(c2ccccc2Cl)N1N1C(=O)CSC1c1ccccc1Cl (stereo not given) | > 200 µM | 18.2 µM | –
COC(=O)C(C#N)=C1c2ccccc2Oc2ccccc21 | > 129 µM | 66.1 µM | –
Clc1ccccc1OCc1nc2ccccc2[nH]1 | > 200 µM | > 200 µM | –
O=C1N2CCCSC2=NC1(c1ccccc1)c1ccccc1 | – | – | inactive
Cn1c(N)c2c3c(sc2nc1=O)CCCC3 | 77.6 µM | > 100 µM | –
Cc1cccc2oc3c(c(=O)c12)CC(O)C(C)(C)O3 (stereo not given) | > 200 µM | 79.4 µM | –
Cc1cccc2c1[nH]c1[nH]c(=O)[nH]c(=O)c12 | > 200 µM | 151 µM | –

SMILES | EC50 | IC50 | outcome
Clc1ccc(-c2cc(-c3cc(-c4ccc(Cl)cc4)n[nH]3)[nH]n2)cc1 | > 200 µM | > 200 µM | –
Cn1cc2ccccc2c1-c1nc(F)nc(Nc2ccc(N)cc2)n1 | > 15.5 µM | 7.94 µM | –
COc1cc(C)cc2c1C(=O)C(Br)CC2 (stereo not given) | – | – | inactive
O=C1CSC(c2ccccc2[N+](=O)[O-])N1c1ccc(-c2ccc(-n3c(-c4ccccc4)nc4ccccc4c3=O)cc2)cc1 (stereo not given) | > 200 µM | 95.5 µM | –
CCOC(=O)c1ccc[c]([Sb](=[O])([OH])[OH])c1 | 4.9 µM | 398 µM | –
c1cc2cc(Cc3ccc4[nH]ccc4c3)ccc2[nH]1 | > 200 µM | 30.9 µM | –
CN(C)c1ccc(/C=C(\C#N)c2ccc(Cl)cc2)c(Cl)c1 | > 50.1 µM | 4.9 µM | –
C(=C/[PH+](c1ccccc1)c1ccccc1)/[PH+](c1ccccc1)c1ccccc1.O=C([O-])C(F)(F)F.[C-]#[O+].[C-]#[O+].[C-]#[O+].[Mn] | > 8.13 µM | 0.589 µM | –
CO/C(=N\N=C\c1cccc(Cl)c1)c1ccncc1 | > 132 µM | 83.2 µM | –
NC(=S)N/N=C1\CCCCc2ccccc21 | – | – | inactive
CC(=O)NC(CCCNC(=O)NCCCl)C(=O)NCc1ccccc1 (stereo not given) | > 676 µM | > 676 µM | –
Cc1c(COC(=O)NC(C)C)c(COC(=O)NC(C)C)c2n1CS(=O)C2 (stereo not given) | > 200 µM | 166 µM | –
CC1=C2[C@@H](c3ccccc3)C3C=CC2(c2ccccc23)N(C(=O)Nc2cccc3ccccc23)C1=O (stereo not given in full) | > 5.75 µM | > 5.75 µM | –
NC(CSC(c1ccccc1)(c1ccccc1)c1ccccc1)C(=O)O (stereo not given) | > 49 µM | 0.813 µM | –
Nc1nc(N)c(N=O)c(Nc2cccc(Br)c2)n1 | > 200 µM | 8.51 µM | –
N#C[C@H](OC1OC(COC(=O)/C=C/c2ccc(O)c(O)c2)C(O)C(O)C1O)c1ccccc1 (stereo not given in full) | – | – | inactive
CC(=O)N/C(=C\c1ccc(Cc2nc3c([nH]2)C(=O)c2ccccc2C3=O)cc1)c1nc2c([nH]1)C(=O)c1ccccc1C2=O | > 12.6 µM | > 12.6 µM | –
Cc1cc2cc3n(c2nn1)N=C(Cl)CC3 | > 339 µM | 6.31 µM | –
O=C(CSC1=NNC2(C(=O)N1)c1ccccc1-c1ccccc12)NC(=S)Nc1ccccc1 | > 200 µM | 25.7 µM | –
N#C/C(=C\c1cccc(Cl)c1)C(=O)c1ccccc1 | > 112 µM | 55 µM | –
C=C(CS(=O)(=O)c1ccccc1)C(=O)OCC | – | – | inactive
CCn1c(O)c(C=Nc2ccccc2)s/c1=N/Nc1ncc(CC(=O)Nc2ccccc2C)s1 | > 200 µM | 170 µM | –
COc1cc(C(C2=C(O)c3ccccc3C(=O)C2=O)C2=C(O)c3ccccc3C(=O)C2=O)cc(Br)c1O | > 200 µM | 32.4 µM | –

SMILES | EC50 | IC50 | outcome
CC1(C)CC(=O)C2=C(C1)NC1=C(C2)C(=O)CC(C)(C)C1 | > 200 µM | > 200 µM | –
C[N+]12C=CC=C1C(N1CCCC1)c1scc(-c3ccccc3)c12 (stereo not given) | > 200 µM | 17.8 µM | –
O=C(O)C(=O)O | > 427 µM | > 427 µM | –
Cc1cn([C@H]2C[C@@H]3[C@@H](COC(CCN=[N+]=[N-])N3O)O2)c(=O)[nH]c1=O (stereo not given in full) | 72.4 µM | > 200 µM | –
CCOc1ccc(N2CC(=O)N3CCCCN3C(=O)C2)cc1 | > 200 µM | > 200 µM | –
COc1cc2c3c(c1OCc1ccccc1)NCCC3NCC2 (stereo not given) | – | – | inactive
COc1cc2ccn3c4cc(OC)c(OC)cc4cc3c2cc1OC | 7.94 µM | 8.13 µM | –
Cc1c(C(=O)C/C(=N\O)C(=O)Nc2cc(Cl)c(Cl)cc2Cl)[n+](=O)c2ccccc2n1[O-] | > 14.8 µM | > 14.8 µM | –
CSC1=N/C(=C\c2ccc(Cl)cc2)C(=O)N1CN1CCCCC1 | > 200 µM | > 200 µM | –
COC(=O)[C@@H]1OC(C)(c2ccccc2)O[C@H]1C(=O)OC | > 200 µM | > 200 µM | –
CC1(C)C2CCC(=O)C1CC2 (stereo not given) | > 200 µM | > 200 µM | –
O=C1c2cccc(O)c2C(=O)c2c(O)cccc21 | > 30.2 µM | > 30.2 µM | –
O=[P+](O)c1cc2ccccc2c2ccccc12 | – | – | inactive
CCOC(=O)c1cc2sc(NC(=O)c3ccccc3)nc2o1 | – | – | inactive
O=P(N1CC1)(N1CC1)N1CC2CCC(CC2)C1 | > 200 µM | 1.62 µM | –
O=C(CC(=O)Nc1cccc(C(=O)O)c1)Nc1cccc(C(=O)O)c1 | > 200 µM | > 200 µM | –
CC(C)(CCCCC(C)(C)NC1=NCCO1)NC1=NCCO1 | > 200 µM | 77.6 µM | –
COc1ccc(NC(=O)C2=C(SC)C(=O)N=C2N)cc1 | > 100 µM | > 100 µM | –
O=c1[nH]c(=O)n(CCOc2ccccc2)cc1Nc1ccccc1 | > 200 µM | > 200 µM | –
O=C(O)CCCCCCCCC(=O)O | > 178 µM | > 178 µM | –

Source: PubChem BioAssay AID179 (DTP/NCI, 2004)
